Assays:
Histone deacetylase 2 = Histone deacetylase 2 (Homo sapiens, UniProt Q92769); assay: Inhibition of HDAC2 after 17 hrs
Histone deacetylase 3 = Histone deacetylase 3 (Homo sapiens, UniProt O15379); assay: Inhibition of HDAC3 after 17 hrs
[1] = biological target: T1, Protein deacetylase HDAC6 (Homo sapiens, UniProt Q9UBN7); assay: Inhibition of HDAC6 after 17 hrs
T1 sequence (Q9UBN7 whole entry): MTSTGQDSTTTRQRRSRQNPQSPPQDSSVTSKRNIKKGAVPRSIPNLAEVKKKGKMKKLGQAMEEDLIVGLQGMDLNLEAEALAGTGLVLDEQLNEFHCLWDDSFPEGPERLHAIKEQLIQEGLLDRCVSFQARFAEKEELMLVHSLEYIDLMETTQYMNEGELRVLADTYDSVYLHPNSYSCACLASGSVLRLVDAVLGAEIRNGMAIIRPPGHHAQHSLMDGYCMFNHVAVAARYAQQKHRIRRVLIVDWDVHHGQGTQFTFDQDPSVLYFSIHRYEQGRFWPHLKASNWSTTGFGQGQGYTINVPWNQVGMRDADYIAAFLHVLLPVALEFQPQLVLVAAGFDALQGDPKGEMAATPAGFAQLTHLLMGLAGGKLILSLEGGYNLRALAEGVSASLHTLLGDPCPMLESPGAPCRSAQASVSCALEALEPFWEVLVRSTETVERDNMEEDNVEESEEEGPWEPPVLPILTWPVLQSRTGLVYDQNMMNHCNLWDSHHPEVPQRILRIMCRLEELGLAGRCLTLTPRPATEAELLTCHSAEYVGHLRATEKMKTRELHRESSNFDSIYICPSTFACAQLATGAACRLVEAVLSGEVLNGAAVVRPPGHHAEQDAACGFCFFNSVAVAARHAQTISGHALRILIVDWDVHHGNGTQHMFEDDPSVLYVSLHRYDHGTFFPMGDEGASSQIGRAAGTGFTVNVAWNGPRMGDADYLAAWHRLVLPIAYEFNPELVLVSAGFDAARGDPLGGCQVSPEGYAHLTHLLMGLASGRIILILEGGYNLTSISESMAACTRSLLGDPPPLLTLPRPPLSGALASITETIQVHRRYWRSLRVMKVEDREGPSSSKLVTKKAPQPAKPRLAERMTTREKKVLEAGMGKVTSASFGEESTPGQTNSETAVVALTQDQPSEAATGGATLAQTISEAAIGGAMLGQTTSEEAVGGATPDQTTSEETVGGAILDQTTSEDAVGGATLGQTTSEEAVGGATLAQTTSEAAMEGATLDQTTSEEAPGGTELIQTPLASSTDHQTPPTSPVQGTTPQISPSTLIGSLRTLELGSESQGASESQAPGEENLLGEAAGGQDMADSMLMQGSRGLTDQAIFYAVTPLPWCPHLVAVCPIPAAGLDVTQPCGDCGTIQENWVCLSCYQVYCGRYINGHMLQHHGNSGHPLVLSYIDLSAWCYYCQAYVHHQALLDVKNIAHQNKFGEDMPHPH

BXPC-3 = assay: Antiproliferative activity against human BxPC3 cells after 72 hrs by MTT assay; type: functional, cell-based; conditions: BXPC-3, 72 h
HuP-T3 = assay: Antiproliferative activity against human HupT3 cells after 72 hrs by MTT assay; type: functional, cell-based; conditions: HuP-T3, 72 h
MIA PaCa-2 = assay: Antiproliferative activity against human MiaPaca2 cells after 72 hrs by MTT assay; type: functional, cell-based; conditions: MIA PaCa-2, 72 h
[2] = Antiproliferative activity against human Panc04.03 cells after 72 hrs by MTT assay; type: functional, cell-based; conditions: Panc 04.03, 72 h
[3] = Antiproliferative activity against human SU.86.86 cells after 72 hrs by MTT assay; type: functional, cell-based; conditions: SU.86.86, 72 h
Histone deacetylase 1 = Histone deacetylase 1 (Homo sapiens, UniProt Q13547)
Sequence of Histone deacetylase 1 (Q13547 whole entry): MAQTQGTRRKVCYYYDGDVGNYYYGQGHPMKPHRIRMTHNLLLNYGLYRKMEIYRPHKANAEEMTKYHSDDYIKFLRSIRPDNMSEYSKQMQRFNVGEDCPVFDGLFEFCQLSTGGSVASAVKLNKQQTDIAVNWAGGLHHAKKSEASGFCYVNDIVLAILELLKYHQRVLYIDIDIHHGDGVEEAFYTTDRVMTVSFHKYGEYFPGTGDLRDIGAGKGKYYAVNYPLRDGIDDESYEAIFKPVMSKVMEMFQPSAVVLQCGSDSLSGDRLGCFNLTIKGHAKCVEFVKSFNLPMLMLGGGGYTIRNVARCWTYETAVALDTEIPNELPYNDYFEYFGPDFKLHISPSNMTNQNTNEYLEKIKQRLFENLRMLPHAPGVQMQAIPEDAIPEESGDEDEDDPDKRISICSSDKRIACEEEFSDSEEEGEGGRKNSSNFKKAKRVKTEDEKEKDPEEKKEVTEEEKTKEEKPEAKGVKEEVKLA
Description: Inhibition of HDAC1 after 17 hrs

Histone deacetylase 8 = biological target: T2, Histone deacetylase 8 (Homo sapiens, UniProt Q9BY41)
T2 sequence (Q9BY41 whole entry): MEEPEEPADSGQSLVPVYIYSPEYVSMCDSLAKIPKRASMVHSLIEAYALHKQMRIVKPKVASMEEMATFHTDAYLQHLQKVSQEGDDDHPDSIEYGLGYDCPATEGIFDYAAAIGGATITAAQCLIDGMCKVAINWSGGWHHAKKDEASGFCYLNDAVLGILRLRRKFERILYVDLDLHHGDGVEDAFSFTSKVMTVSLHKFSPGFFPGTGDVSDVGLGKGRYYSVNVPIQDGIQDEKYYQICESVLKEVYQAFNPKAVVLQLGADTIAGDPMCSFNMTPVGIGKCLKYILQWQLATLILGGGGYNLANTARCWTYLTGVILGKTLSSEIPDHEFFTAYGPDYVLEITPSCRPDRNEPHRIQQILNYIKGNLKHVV
Description: Inhibition of HDAC8 after 17 hrs

[4] = biological target: T3, Polyamine deacetylase HDAC10 (Homo sapiens, UniProt Q969S8)
T3 sequence (Q969S8 whole entry): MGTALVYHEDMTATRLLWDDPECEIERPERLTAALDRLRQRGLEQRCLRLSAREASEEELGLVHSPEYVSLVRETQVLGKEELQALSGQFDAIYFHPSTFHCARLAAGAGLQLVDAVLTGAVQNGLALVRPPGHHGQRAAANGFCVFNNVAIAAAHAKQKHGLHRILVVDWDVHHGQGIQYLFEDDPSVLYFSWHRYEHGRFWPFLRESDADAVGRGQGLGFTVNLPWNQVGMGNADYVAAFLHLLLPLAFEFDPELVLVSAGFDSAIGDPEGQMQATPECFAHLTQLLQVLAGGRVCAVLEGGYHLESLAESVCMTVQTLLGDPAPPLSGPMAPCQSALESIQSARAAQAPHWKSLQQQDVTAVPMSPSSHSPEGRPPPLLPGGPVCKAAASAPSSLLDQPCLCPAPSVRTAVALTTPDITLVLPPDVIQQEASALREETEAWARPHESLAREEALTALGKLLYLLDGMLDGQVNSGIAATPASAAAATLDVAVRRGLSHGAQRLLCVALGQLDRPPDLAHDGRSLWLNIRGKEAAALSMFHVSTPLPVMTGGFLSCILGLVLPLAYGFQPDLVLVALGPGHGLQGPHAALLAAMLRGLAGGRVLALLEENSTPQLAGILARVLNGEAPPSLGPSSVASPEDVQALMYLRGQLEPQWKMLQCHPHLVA
Description: Inhibition of HDAC10 after 17 hrs

HMEC = assay: Cytotoxicity against HMEC after 72 hrs by MTT assay; type: ADME, cell-based; conditions: Homo sapiens
[5] = Cytotoxicity against HPDE 6c7 cells after 72 hrs by MTT assay; type: ADME, cell-based; conditions: Homo sapiens, HPDE6c7, 72 h

Sequence of Histone deacetylase 3 (O15379 whole entry): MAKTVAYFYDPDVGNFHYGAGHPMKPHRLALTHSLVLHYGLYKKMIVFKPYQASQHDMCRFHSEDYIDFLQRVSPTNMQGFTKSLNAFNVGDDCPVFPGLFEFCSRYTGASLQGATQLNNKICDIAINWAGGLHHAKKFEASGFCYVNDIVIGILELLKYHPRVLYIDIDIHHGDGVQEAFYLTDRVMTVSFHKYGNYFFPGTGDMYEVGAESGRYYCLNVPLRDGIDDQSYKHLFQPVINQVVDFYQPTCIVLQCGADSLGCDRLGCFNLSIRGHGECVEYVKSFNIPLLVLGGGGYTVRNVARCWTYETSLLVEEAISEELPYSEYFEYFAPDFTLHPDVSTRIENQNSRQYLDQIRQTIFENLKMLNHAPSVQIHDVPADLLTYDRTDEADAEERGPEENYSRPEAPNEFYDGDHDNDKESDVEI
Sequence of Histone deacetylase 2 (Q92769 whole entry): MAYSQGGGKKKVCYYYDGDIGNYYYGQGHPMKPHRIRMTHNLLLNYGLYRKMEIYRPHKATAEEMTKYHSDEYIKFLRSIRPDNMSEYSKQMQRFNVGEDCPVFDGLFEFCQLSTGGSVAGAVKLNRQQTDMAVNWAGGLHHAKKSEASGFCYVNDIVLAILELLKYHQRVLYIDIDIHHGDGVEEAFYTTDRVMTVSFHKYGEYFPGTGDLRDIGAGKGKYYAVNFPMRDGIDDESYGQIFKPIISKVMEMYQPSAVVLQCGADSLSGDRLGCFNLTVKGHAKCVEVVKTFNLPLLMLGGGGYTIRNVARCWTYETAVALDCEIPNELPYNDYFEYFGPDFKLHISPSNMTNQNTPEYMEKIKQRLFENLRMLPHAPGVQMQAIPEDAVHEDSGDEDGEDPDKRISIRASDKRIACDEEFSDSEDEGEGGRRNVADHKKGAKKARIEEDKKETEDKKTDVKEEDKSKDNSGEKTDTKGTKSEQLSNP

With `Nc1cccc(-c2cc(C(=O)NCCCCC(=O)NO)no2)c1` the IC50 (Histone deacetylase 2) was 1940 nM, the IC50 (Histone deacetylase 3) was 144 nM and the IC50 [1] was 72.2 nM. It also gave an IC50 (BXPC-3) of 38000 nM, an IC50 (HuP-T3) of 37000 nM and an IC50 (MIA PaCa-2) of 25000 nM. For the same compound, the IC50 [2] was > 50000 nM, the IC50 [3] was 25000 nM and the IC50 (Histone deacetylase 1) was 716 nM. For the same compound, the IC50 (Histone deacetylase 8) was 3430 nM and the IC50 [4] was 840 nM.

For `CC(C)(C)OC(=O)Nc1ccc(-c2cc(C(=O)NCCCCC(=O)NO)no2)cc1`, the IC50 (Histone deacetylase 2) was 1740 nM, the IC50 (Histone deacetylase 3) was 115 nM and the IC50 [1] was 31.6 nM. The IC50 (BXPC-3) was 25000 nM, the IC50 (HuP-T3) was 10000 nM and the IC50 (MIA PaCa-2) was 12000 nM. The IC50 [2] was 16000 nM, the IC50 [3] was 24000 nM and the IC50 (Histone deacetylase 1) was 628 nM. The IC50 (Histone deacetylase 8) was 3650 nM and the IC50 [4] was 690 nM.

In the case of `Nc1ccc(-c2cc(C(=O)NCCCCCCC(=O)NO)no2)cc1`, the IC50 (Histone deacetylase 2) is reported as 147 nM, the IC50 (Histone deacetylase 3) is reported as 10.2 nM and the IC50 [1] is reported as 5.86 nM. For the same compound, the IC50 (BXPC-3) was 800 nM, the IC50 (HuP-T3) was 200 nM and the IC50 (MIA PaCa-2) was 100 nM. The IC50 [2] was 100 nM, the IC50 [3] was 800 nM and the IC50 (HMEC) was < 1000 nM. The IC50 [5] was 400 nM, the IC50 (Histone deacetylase 1) was 56.3 nM and the IC50 (Histone deacetylase 8) was 3460 nM. The IC50 [4] was 44.9 nM.

For `O=C(CCCCNC(=O)c1cc(-c2ccccc2)on1)NO`, the IC50 (Histone deacetylase 2) was 1690 nM, the IC50 (Histone deacetylase 3) was 158 nM and the IC50 [1] was 61.9 nM. It also gave an IC50 (BXPC-3) of 28000 nM, an IC50 (HuP-T3) of 5000 nM and an IC50 (MIA PaCa-2) of 4000 nM. It also gave an IC50 [2] of 5000 nM, an IC50 [3] of 5000 nM and an IC50 (Histone deacetylase 1) of 644 nM. For the same compound, the IC50 (Histone deacetylase 8) was 3580 nM and the IC50 [4] was 852 nM.

Work on `Nc1cccc(-c2cc(C(=O)NCCCCCCC(=O)NO)no2)c1` yielded an IC50 (Histone deacetylase 2) of 56.7 nM, an IC50 (Histone deacetylase 3) of 4.04 nM and an IC50 [1] of 2.54 nM. For the same compound, the IC50 (BXPC-3) was 700 nM, the IC50 (HuP-T3) was 100 nM and the IC50 (MIA PaCa-2) was 100 nM. The IC50 [2] was 900 nM, the IC50 [3] was 200 nM and the IC50 (HMEC) was < 1000 nM. The IC50 [5] was 200 nM, the IC50 (Histone deacetylase 1) was 20.7 nM and the IC50 (Histone deacetylase 8) was 938 nM. The IC50 [4] was 17.5 nM.

`Nc1ccc(-c2cc(C(=O)NCCCCC(=O)NO)no2)cc1` gave an IC50 (Histone deacetylase 2) of 1050 nM, an IC50 (Histone deacetylase 3) of 65.8 nM and an IC50 [1] of 35.1 nM. The IC50 (BXPC-3) was 33000 nM, the IC50 (HuP-T3) was 7000 nM and the IC50 (MIA PaCa-2) was 10000 nM. The IC50 [2] was 17000 nM, the IC50 [3] was 11000 nM and the IC50 (Histone deacetylase 1) was 360 nM. It also gave an IC50 (Histone deacetylase 8) of 2830 nM and an IC50 [4] of 401 nM.

Compound `CC(=O)Nc1ccc(-c2cc(C(=O)NCCCCCCC(=O)NO)no2)cc1` has an IC50 (Histone deacetylase 2) of 131 nM, an IC50 (Histone deacetylase 3) of 18 nM and an IC50 [1] of 6.81 nM. It also gave an IC50 (BXPC-3) of 6000 nM, an IC50 (HuP-T3) of 1000 nM and an IC50 (MIA PaCa-2) of 900 nM. For the same compound, the IC50 [2] was 4000 nM, the IC50 [3] was 1000 nM and the IC50 (Histone deacetylase 1) was 64.5 nM. The IC50 (Histone deacetylase 8) was 4900 nM and the IC50 [4] was 73 nM.

For `CC(C)(C)OC(=O)Nc1cccc(-c2cc(C(=O)NCCCCCCC(=O)NO)no2)c1`, the IC50 (Histone deacetylase 2) was 238 nM, the IC50 (Histone deacetylase 3) was < 0.002 nM and the IC50 [1] was < 0.002 nM. The IC50 (BXPC-3) was 1000 nM, the IC50 (HuP-T3) was 800 nM and the IC50 (MIA PaCa-2) was 700 nM. The IC50 [2] was 1000 nM, the IC50 [3] was 1000 nM and the IC50 (HMEC) was 7000 nM. The IC50 [5] was 1500 nM, the IC50 (Histone deacetylase 1) was 100 nM and the IC50 (Histone deacetylase 8) was 8100 nM. For the same compound, the IC50 [4] was 28.2 nM.

With `CC(C)(C)OC(=O)Nc1cccc(-c2cc(C(=O)NCCCCC(=O)NO)no2)c1` the IC50 (Histone deacetylase 2) was 2980 nM, the IC50 (Histone deacetylase 3) was 83.6 nM and the IC50 [1] was 3.98 nM. For the same compound, the IC50 (BXPC-3) was 36000 nM, the IC50 (HuP-T3) was 14000 nM and the IC50 (MIA PaCa-2) was 8000 nM. It also gave an IC50 [2] of 14000 nM, an IC50 [3] of 22000 nM and an IC50 (Histone deacetylase 1) of 826 nM. It also gave an IC50 (Histone deacetylase 8) of 5810 nM and an IC50 [4] of 891 nM.

For `CC(C)(C)OC(=O)Nc1ccc(-c2cc(C(=O)NCCCCCCC(=O)NO)no2)cc1`, the IC50 (Histone deacetylase 2) was 252 nM, the IC50 (Histone deacetylase 3) was 0.42 nM and the IC50 (BXPC-3) was 1000 nM. It also gave an IC50 (HuP-T3) of 300 nM, an IC50 (MIA PaCa-2) of 100 nM and an IC50 [2] of 100 nM. For the same compound, the IC50 [3] was 600 nM, the IC50 (HMEC) was < 1000 nM and the IC50 [5] was 500 nM. The IC50 (Histone deacetylase 1) was 271 nM, the IC50 (Histone deacetylase 8) was 6850 nM and the IC50 [4] was 90.7 nM.

Work on `O=C(CCCCOCc1cc(-c2ccccc2)on1)NO` yielded an IC50 (Histone deacetylase 2) of 133 nM, an IC50 (Histone deacetylase 3) of 12.9 nM and an IC50 [1] of 49.5 nM. It also gave an IC50 (BXPC-3) of 7000 nM, an IC50 (HuP-T3) of 400 nM and an IC50 (MIA PaCa-2) of 1000 nM. It also gave an IC50 [2] of 1500 nM, an IC50 [3] of 1000 nM and an IC50 (Histone deacetylase 1) of 124 nM. For the same compound, the IC50 (Histone deacetylase 8) was 3320 nM and the IC50 [4] was 155 nM.

From ChEMBL document CHEMBL1155917, “Use of the nitrile oxide cycloaddition (NOC) reaction for molecular probe generation: a new class of enzyme selective histone deacetylase inhibitors (HDACIs) showing picomolar activity at HDAC6” (J Med Chem, 2008)
